Results taken from article PMC2856764 (Human immunology, 2010).
Ends that are not written are not given here. Peptide text beside a SMILES is read from it.

Tests used:
[1] = tested on: CD8+ enriched human donor PBMC; format: cell-based
HLA-A*3301 = HLA-A*3301 (Homo sapiens, UniProt P04439, A270S/D185E/E176V/E277Q/E87N/F33T/G231S/H175R/I121M/I218V/I322F/K168Q/K210R/L300P/L318F/M331R/P217A/Q86R/Q94H/R138Q/T323A/T345S/T97I/V358M/Y195H); test: biochemical; format: binding
HLA-A*3101 = HLA-A*3101 (Homo sapiens, UniProt P04439, A270S/D185E/E176V/E277Q/F33T/G231S/G80R/H175R/I121M/I218V/I322F/K168Q/L300P/L318F/M331R/P217A/Q94H/R138Q/T323A/T345S/T97I/V358M); test: biochemical; format: binding
HLA-A*1101 = HLA-A*1101 (Homo sapiens, UniProt P04439, A114D/D185E/E176A/F33Y/L180Q/S129P/T187R); test: biochemical; format: binding
HLA-A*6801 = HLA-A*6801 (Homo sapiens, UniProt P04439, A269V/D185E/E176V/E277Q/E87N/F33Y/G231S/I121M/I166T/I218V/L180W/L300P/L318F/N151K/P208A/P217A/Q86R/R169H/T345S); test: biochemical; format: binding
HLA-A*0301 = HLA-A*0301 (Homo sapiens, UniProt P04439); test: biochemical; format: binding
HLA-A*0203 = HLA-A*0203 (Homo sapiens, UniProt P04439, A173T/D140Y/D185E/D98H/E277Q/G131W/G231S/I119V/I121R/I166T/I218V/L180W/L300P/L318F/N151K/N90K/P208A/P217A/Q86G/Q94H/R138H/R169H/T345S); test: biochemical; format: binding
HLA-A*6802 = HLA-A*6802 (Homo sapiens, UniProt P04439, A269V/D140Y/D185E/E176V/E277Q/E87N/F33Y/G231S/I121R/I166T/I218V/L180W/L300P/L318F/N151K/P208A/P217A/Q86R/R138H/R169H/S129P/T345S/V36M); test: biochemical; format: binding
HLA-A*0206 = HLA-A*0206 (Homo sapiens, UniProt P04439, D140Y/D185E/D98H/E176V/E277Q/F33Y/G131W/G231S/I119V/I121R/I166T/I218V/L300P/L318F/N151K/N90K/P208A/P217A/Q86G/Q94H/R138H/R169H/T345S); test: biochemical; format: binding
HLA-A*0201 = HLA-A*0201 (Homo sapiens, UniProt P04439, D140Y/D185E/D98H/E176V/E277Q/G131W/G231S/I119V/I121R/I166T/I218V/L300P/L318F/N151K/N90K/P208A/P217A/Q86G/Q94H/R138H/R169H/T345S); test: biochemical; format: binding
HLA-A*0202 = HLA-A*0202 (Homo sapiens, UniProt P04439, D140Y/D185E/D98H/E176V/E277Q/G131W/G231S/I119L/I121R/I166T/I218V/L180W/L300P/L318F/N151K/N90K/P208A/P217A/Q67R/Q86G/Q94H/R138H/R169H/T345S); test: biochemical; format: binding
HLA-A*2402 = HLA-A*2402 (Homo sapiens, UniProt P04439, D101N/D140Y/D185E/E176V/E190D/F33S/G103R/G107R/I119L/I121M/I306V/K335N/L105A/L180Q/L300P/N151K/N90K/Q86E/Q94H/R106L/R138H/R89G/T104I/T345S/V100E/W191G/Y123F); test: biochemical; format: binding
HLA-A*3002 = HLA-A*3002 (Homo sapiens, UniProt P04439, D101N/D140H/D185E/E176R/F33S/G80R/H175R/K168Q/Q94H/R138E/R41S/V100E); test: biochemical; format: binding
HLA-A*2301 = HLA-A*2301 (Homo sapiens, UniProt P04439, D101N/D140Y/D185E/E176V/E190D/F33S/G103R/G107R/H175R/I119L/I121M/I306V/K168Q/K335N/L105A/L300P/N151K/N90K/P307H/Q86E/Q94H/R106L/R138H/R89G/T104I/T345S/V100E/W191G/Y123F); test: biochemical; format: binding
HLA-A*2902 = HLA-A*2902 (Homo sapiens, UniProt P04439, A270S/D101N/D185E/E176V/E277Q/E87Q/F33T/G231S/H175R/I121M/I218V/I322F/K168Q/L300P/L318F/M331R/P208A/P217A/Q86L/T323A/T345S/V100A/V358M); test: biochemical; format: binding
HLA-B*4402 = HLA-B*4402 (Homo sapiens, UniProt P01889, A223V/A65T/A93T/A95T/D201E/D98Y/E176V/E187L/E204Q/E69K/G107R/H137Y/K202T/L105A/L119I/N104T/N87E/Q56L/Q94N/R106L/R155S/R180D/S101N/S121R/S35A/S48T/T118I/V36M/W191S/Y140D/Y91S); test: biochemical; format: binding
HLA-B*4002 = HLA-B*4002 (Homo sapiens, UniProt P01889, A65T/A93T/A95T/D138N/D201E/D98Y/E176V/E204Q/E69K/K202T/N87E/Q56L/Q94N/R180L/S48T/Y33H/Y91S); test: biochemical; format: binding
HLA-B*4501 = HLA-B*4501 (Homo sapiens, UniProt P01889, A329T/A65T/A93T/A95T/C349S/D138N/D201E/D98Y/E176V/E187L/E204Q/E69K/H137Y/K202T/L119W/N87E/Q56L/Q94N/R155S/R180D/S121R/S35A/S48T/V127L/V306I/V36M/W191S/Y140L/Y33H/Y91S); test: biochemical; format: binding
HLA-B*4001 = HLA-B*4001 (Homo sapiens, UniProt P01889, A65T/A93T/A95T/D138N/D98Y/E176V/E69K/N87E/Q56L/Q94N/R180L/S121R/S35A/S48T/T167S/V36M/W171L/Y33H/Y91S); test: biochemical; format: binding
HLA-B*4403 = HLA-B*4403 (Homo sapiens, UniProt P01889, A223V/A65T/A93T/A95T/D201E/D98Y/E176V/E187L/E204Q/E69K/G107R/H137Y/K202T/L105A/L119I/N104T/N87E/Q56L/Q94N/R106L/R155S/R180L/S101N/S121R/S35A/S48T/T118I/V36M/W191S/Y140D/Y91S); test: biochemical; format: binding
HLA-B*1801 = HLA-B*1801 (Homo sapiens, UniProt P01889, A329T/A93T/A95T/C349S/D201E/D54G/D98Y/E176V/E187T/E204Q/E69T/K202T/Q94N/R155S/R180L/S121R/V306I/Y140S/Y195H/Y33H/Y91S); test: biochemical; format: binding

With `CC(C)C[C@H](NC(=O)[C@H](CS)NC(=O)[C@H](CO)NC(=O)[C@@H](N)CCCCN)C(=O)N1CCC[C@H]1C(=O)N[C@@H](C)C(=O)N[C@@H](CS)C(=O)N[C@H](C(=O)N[C@@H](Cc1ccc(O)cc1)C(=O)O)C(C)C` [NP.273] (H-KSCLPACVY-OH; N-terminus and C-terminus assumed) the IFN-γ responses [1] was 590; 1200; 300 SFC/10^6 CD8^+ cells and the peptide-specific recall response [1] was “Significant”.

In the case of `CC(C)C[C@H](NC(=O)CNC(=O)[C@H](Cc1ccc(O)cc1)NC(=O)[C@@H](NC(=O)[C@H](CS)NC(=O)[C@H](C)NC(=O)[C@@H]1CCCN1C(=O)[C@H](CC(C)C)NC(=O)[C@@H](N)CS)C(C)C)C(=O)O` [NP.275] (H-CLPACVYGL-OH; N-terminus and C-terminus assumed), the IFN-γ responses [1] is reported as 350; 986; 2200 SFC/10^6 CD8^+ cells and the peptide-specific recall response [1] is reported as “responses induced”.

ASCMGLIYNR [M1.125] showed an IC50 (HLA-A*3301) of 445 nM, an IC50 (HLA-A*3101) of 7 nM and an IC50 (HLA-A*1101) of 32 nM. The IC50 (HLA-A*6801) was 391 nM and the IC50 (HLA-A*0301) was 816 nM.

FQGRGVFEL [NP.458] was tested, and the IC50 (HLA-A*0203) was 307 nM, the IC50 (HLA-A*6802) was greater than 10000 nM and the IC50 (HLA-A*0206) was 7 nM. It also gave an IC50 (HLA-A*0201) of 143 nM and an IC50 (HLA-A*0202) of 7 nM.

Molecule FQVDCFLWHV [NS1.9] has an IC50 (HLA-A*0203) of 3 nM, an IC50 (HLA-A*6802) of 219 nM and an IC50 (HLA-A*0206) of 1 nM. It also gave an IC50 (HLA-A*0201) of 4 nM and an IC50 (HLA-A*0202) of 4 nM.

FYIQMCTEL [NP.39] was tested, and the IC50 (HLA-A*2402) was 24 nM, the IC50 (HLA-A*3002) was greater than 10000 nM and the IC50 (HLA-A*2301) was 8 nM. For the same molecule, the IC50 (HLA-A*2902) was 1560 nM.

With FYRYGFVANF [PB1.496] the IC50 (HLA-A*2402) was 17 nM, the IC50 (HLA-A*3002) was greater than 10000 nM and the IC50 (HLA-A*2301) was 13 nM. The IC50 (HLA-A*2902) was 812 nM.

With GERQNATEI [NP.17] the IC50 (HLA-B*4402) was greater than 10000 nM, the IC50 (HLA-B*4002) was 53 nM and the IC50 (HLA-B*4501) was 304 nM. For the same molecule, the IC50 (HLA-B*4001) was 199 nM, the IC50 (HLA-B*4403) was greater than 10000 nM and the IC50 (HLA-B*1801) was greater than 10000 nM.

In the case of GLFGAIAGFI [HA.345], the IC50 (HLA-A*0203) is reported as 1 nM, the IC50 (HLA-A*6802) is reported as 1530 nM and the IC50 (HLA-A*0206) is reported as 2540 nM. The IC50 (HLA-A*0201) was 41 nM and the IC50 (HLA-A*0202) was 0.4 nM.

For GTFEFTSFFY [PB1.488], the IC50 (HLA-A*3301) was 5410 nM, the IC50 (HLA-A*3101) was 242 nM and the IC50 (HLA-A*1101) was 1 nM. The IC50 (HLA-A*6801) was 100 nM and the IC50 (HLA-A*0301) was 16 nM.

With KFLPDLYDYK [PA.104] the IC50 (HLA-A*3301) was greater than 10000 nM, the IC50 (HLA-A*3101) was 2410 nM and the IC50 (HLA-A*1101) was 22 nM. It also gave an IC50 (HLA-A*6801) of 507 nM and an IC50 (HLA-A*0301) of 255 nM.
